Active and inactive are the calls of the source.
Tests used:
[1] = biological target: Dual specificity protein kinase CLK1 (Homo sapiens, UniProt P49759); experiment: CLK1 kinase inhibitors, off-target check, dose response, selectivity assay for Dyrk1A inhibitor project, biochemical, cherry-picked samples (AID 588811)
[2] = biological target: T1, Heat shock factor protein 1 (Mus musculus, UniProt P38532); experiment: inhibition of MG132-induced HSE-luciferase signal, confirmation, cell-based, NIH3T3, luminescence, dose retest (AID 2382); format: functional;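 also: NIH3T3 fibroblasts with HSF1-driven luciferase reporter stressed by proteasome inhibitor MG132; luminescence from HSF1-driven luciferase expression after 8 hours of MG132 stress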
T1 sequence (P38532 whole entry): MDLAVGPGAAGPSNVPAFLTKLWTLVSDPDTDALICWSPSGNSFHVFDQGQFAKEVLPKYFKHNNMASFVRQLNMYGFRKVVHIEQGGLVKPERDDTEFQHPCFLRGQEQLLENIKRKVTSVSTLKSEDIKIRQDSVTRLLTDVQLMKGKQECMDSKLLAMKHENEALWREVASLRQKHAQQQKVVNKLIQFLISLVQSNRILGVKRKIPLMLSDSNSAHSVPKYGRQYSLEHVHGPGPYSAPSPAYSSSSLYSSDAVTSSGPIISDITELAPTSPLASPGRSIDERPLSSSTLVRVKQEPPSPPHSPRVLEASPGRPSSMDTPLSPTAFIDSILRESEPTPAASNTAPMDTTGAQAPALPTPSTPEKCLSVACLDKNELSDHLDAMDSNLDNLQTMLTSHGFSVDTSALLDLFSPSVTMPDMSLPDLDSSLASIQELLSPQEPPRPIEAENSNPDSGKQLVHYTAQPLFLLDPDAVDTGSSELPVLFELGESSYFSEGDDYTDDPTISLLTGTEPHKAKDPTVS

[3] = biological target: Dual specificity tyrosine-phosphorylation-regulated kinase 1A (Rattus norvegicus, UniProt Q63470); format: biochemical, Homo sapiens
Prothrombin = Prothrombin (Homo sapiens, UniProt P00734); experiment: Thrombin 1536 HTS Dose Response Confirmation. [Related pubchem assays: 1046 (Thrombin 1536 HTS; hits were confirmed in this assay)]; format: functional
[4] = NIH-3T3 fibroblast cytotoxicity, dose response, cytotoxicity control, cell-based, fluorescence, Alamar Blue, secondary assay (AID 2327); format: functional;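 also: NIH-3T3 mouse fibroblasts cultured with fluconazole at 8 µg/mL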
[5] = biological target: T2, Microphthalmia-associated transcription factor (Homo sapiens, UniProt O75030); experiment: TRPM1 promoter luciferase signal decrease, dose response, MITF inhibitor project, cell-based, SK-MEL-5, cherry-picked, set 3 (AID 493073); format: functional
T2 sequence (O75030 whole entry): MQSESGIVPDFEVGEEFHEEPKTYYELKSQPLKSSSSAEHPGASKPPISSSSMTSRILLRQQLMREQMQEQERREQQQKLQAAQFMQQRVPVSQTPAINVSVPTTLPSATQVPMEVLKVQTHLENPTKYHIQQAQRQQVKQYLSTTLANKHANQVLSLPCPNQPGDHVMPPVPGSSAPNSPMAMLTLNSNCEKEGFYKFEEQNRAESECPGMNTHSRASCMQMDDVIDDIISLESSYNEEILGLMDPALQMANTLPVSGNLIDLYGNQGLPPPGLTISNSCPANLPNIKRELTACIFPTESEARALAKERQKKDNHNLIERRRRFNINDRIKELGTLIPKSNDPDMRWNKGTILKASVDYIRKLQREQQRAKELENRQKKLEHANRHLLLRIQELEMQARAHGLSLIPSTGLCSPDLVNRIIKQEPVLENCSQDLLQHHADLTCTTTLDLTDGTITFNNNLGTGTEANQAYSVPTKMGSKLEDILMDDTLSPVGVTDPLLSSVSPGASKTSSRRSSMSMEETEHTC

A-375 [6] = experiment: MITF: Counter assay: A375 proliferation Measured in Cell-Based System Using Plate Reader - 2084-03_Inhibitor_Dose_DryPowder_Activity. [Related pubchem assays (depositor defined):AID488944]; format: functional; details: Homo sapiens
[7] = cytotoxicity in MIN6 insulinoma cells, dose response, cytotoxicity control, cell-based, mouse insulinoma (AID 2122); format: functional;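 also: confirmatory high-throughput counterscreen run to flag cytotoxic compounds; mouse MIN-6 beta cells carrying an insulin promoter eGFP reporter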
INS1 = experiment: beta cell apoptosis inhibitors, cytokine rescue, dose response, luminescence, retest (AID 449756); format: functional, cell-based; details: Rattus norvegicus;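 also: cell death triggered by IL-1 beta plus TNF-alpha plus IFN-gamma mixture; protective hits raise ATP signal compared with cytokine alone wells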
[8] = C. albicans growth with fluconazole, confirmation, fluorescence, retest (AID 2467); format: functional, cell-based
[9] = insulin promoter down-regulators in MIN6 cells, imaging, high-content screening, mouse beta cells (AID 1628); format: functional
Jurkat = experiment: antigen receptor-induced NF-kB inhibitors, dose response, Jurkat, luciferase reporter, luminescence, B- and T-cell (AID 489004); format: functional, cell-based; details: Homo sapiens;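 also: NF-kB luciferase reporter Jurkat cells stimulated with PMA plus ionomycin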
[10] = control 3'UTR Renilla luciferase suppression, dose response, counter-screen for Shn3 inhibitor project, cell-based, Clone20-Shn3RL, cherry-picked (AID 624133); format: functional
[11] = Shn3 3'UTR reporter inhibitors, dose response, cell-based, Clone20 osteoblasts, firefly luciferase, cherry-picked (AID 624132); format: functional;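 also: firefly luciferase luminescence from reporter carrying the Shn3 3'UTR in osteoblasts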
[12] = cytotoxicity in HEK-293T NF-kB-Luc cells, dose response, cytotoxicity control for B/T-cell NF-kB inhibitor project, cell-based, uHTS hits (AID 489019); format: functional;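 also: IC50 reflects cytotoxicity as loss of cell viability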
[13] = HepG2 cell cytotoxicity, dose response, cytotoxicity control for Shn3 inhibitor project, CellTiter-Glo, cherry-picked (AID 624134); format: functional, cell-based
[14] = biological target: Photoreceptor-specific nuclear receptor (Homo sapiens, UniProt Q9Y5X4); format: functional, cell-based;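 also: CHO-S cells with Gal4-NCOR and VP16-NR2E3 two-hybrid luciferase reporter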
Cysteine protease ATG4B = Cysteine protease ATG4B (Homo sapiens, UniProt Q9Y4P1); format: functional;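 also: Fluorescence-based dose-response confirmation assay measuring inhibition of ATG4B activity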
Phospholipase A2 = Phospholipase A2 (Homo sapiens, UniProt P04054); format: functional;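 also: confirmatory dose-response counterscreen on phospholipase A2, testing hits that came from an ultra-high-throughput screen for ATG4B inhibitors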
[15] = cytotoxicity in COV434 cells, dose response, cytotoxicity control for PAX8 inhibitor project, cell-based, plate reader, dry powder, SA7 (AID 743145); format: functional
[16] = IOSE-T80 ovarian epithelial cell cytotoxicity, dose response, cytotoxicity control for PAX8 inhibitor project, plate reader, dry powder samples (AID 743045); format: functional, cell-based
[17] = growth suppression of beta-catenin-knockout colon cells, dose response, cell-based, HCT116, human colon tumor (AID 1045); format: functional;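 also: HCT116 colon tumor cells with beta catenin knocked out; cells exposed to compound for 60 hours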
[18] = cytotoxicity in COV362 ovarian cancer cells, dose response, cytotoxicity control for PAX8 inhibitor project, cell-based, plate reader, dry powder, SA12 (AID 743144); format: functional
[19] = NIH:OVCAR-3 ovarian cancer cell cytotoxicity, dose response, PAX8 inhibitor project, plate reader, dry powder samples (AID 743044); format: functional, cell-based
[20] = A2780 ovarian cancer cell cytotoxicity, dose response, cytotoxicity control, plate reader, dry powder samples (AID 743046); format: functional, cell-based
[21] = cytotoxicity in OV-90 ovarian cancer cells, dose response, PAX8 inhibitor project, cell-based, plate reader, dry powder, SA8 (AID 743149); format: functional
[22] = PAX5 activity inhibitors, dose response, selectivity assay for PAX8 inhibitor project, cell-based, plate reader, dry powder samples (AID 743047); format: functional;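 also: HEK293 cells carrying a Pax5 driven CD19 promoter luciferase reporter; potency of inhibitors that lower reporter luminescence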
[23] = cytotoxicity in OVCAR4 cells, dose response, cytotoxicity control for PAX8 inhibitor project, cell-based, plate reader, dry powder, SA11 (AID 743150); format: functional; details: OVCAR-4
Paired box protein Pax-8 = Paired box protein Pax-8 (Homo sapiens, UniProt Q06710); experiment: inhibitors of PAX8-driven TPO luciferase reporter, dose response, RMG-I cells, cherry-pick (AID 687027); format: functional, cell-based;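 also: luciferase reporter driven by Pax8 target thyroperoxidase promoter measured by SteadyGlo luminescence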
[24] = IGROV1 ovarian cancer cell cytotoxicity, dose response, PAX8 inhibitor project, plate reader, dry powder samples (AID 743043); format: functional, cell-based; details: IGROV-1
[25] = cytotoxicity dependent on PAX8, dose response, cell-based, plate reader, dry powder (AID 743049); format: functional
[26] = growth suppression of PTEN-null colon cells, dose response, cell-based, HCT116 PTEN knockout (AID 1047); format: functional;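 also: HCT116 colon tumor cells with PTEN knocked out; cells exposed to compound for 60 hours before readout; potency for loss of cell viability measured by luminescence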
[27] = PAX2 cell-based inhibition, dose response, selectivity assay for PAX8 inhibitor project, plate reader, dry powder samples (AID 743048); format: functional;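 also: HEK293 cells carrying a WT1 promoter luciferase reporter driven by expressed Pax2; potency is for inhibition of Pax2 driven reporter signal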
A-375 [28] = experiment: A375 melanoma cell viability reduction, dose response, counter-screen for MITF modulator project, cherry-pick samples, set 2 (AID 540335); format: functional, cell-based; details: Homo sapiens

Sequence of Photoreceptor-specific nuclear receptor (Q9Y5X4 whole entry, the tested form may be a part): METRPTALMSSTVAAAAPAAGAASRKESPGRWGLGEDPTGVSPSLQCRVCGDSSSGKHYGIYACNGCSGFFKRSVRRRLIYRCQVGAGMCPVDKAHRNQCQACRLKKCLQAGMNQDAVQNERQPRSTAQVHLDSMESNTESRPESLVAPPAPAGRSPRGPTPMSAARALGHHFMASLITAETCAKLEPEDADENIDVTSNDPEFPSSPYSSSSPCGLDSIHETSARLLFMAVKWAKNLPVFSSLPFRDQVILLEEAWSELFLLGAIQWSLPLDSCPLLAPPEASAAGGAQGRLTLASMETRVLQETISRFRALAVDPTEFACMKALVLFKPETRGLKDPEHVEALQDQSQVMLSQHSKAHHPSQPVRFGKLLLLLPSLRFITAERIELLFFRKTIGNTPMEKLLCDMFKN
Sequence of Paired box protein Pax-8 (Q06710 whole entry): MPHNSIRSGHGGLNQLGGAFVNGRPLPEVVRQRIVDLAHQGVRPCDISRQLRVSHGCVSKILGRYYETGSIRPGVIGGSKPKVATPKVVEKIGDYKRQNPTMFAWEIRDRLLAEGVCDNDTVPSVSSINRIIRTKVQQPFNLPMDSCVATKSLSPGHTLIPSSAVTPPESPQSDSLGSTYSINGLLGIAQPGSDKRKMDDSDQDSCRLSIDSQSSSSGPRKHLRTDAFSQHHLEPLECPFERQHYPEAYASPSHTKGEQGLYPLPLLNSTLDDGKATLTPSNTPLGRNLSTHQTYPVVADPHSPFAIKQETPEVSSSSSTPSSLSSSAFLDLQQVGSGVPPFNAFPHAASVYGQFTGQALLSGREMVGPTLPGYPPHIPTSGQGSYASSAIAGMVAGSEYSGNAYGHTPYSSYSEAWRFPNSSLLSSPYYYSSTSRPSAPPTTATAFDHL
Sequence of Phospholipase A2 (P04054 whole entry): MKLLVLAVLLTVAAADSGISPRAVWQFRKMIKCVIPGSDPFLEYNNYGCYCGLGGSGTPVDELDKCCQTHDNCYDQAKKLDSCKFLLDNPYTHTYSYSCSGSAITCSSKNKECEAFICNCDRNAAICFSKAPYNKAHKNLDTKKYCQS
Sequence of Cysteine protease ATG4B (Q9Y4P1 whole entry): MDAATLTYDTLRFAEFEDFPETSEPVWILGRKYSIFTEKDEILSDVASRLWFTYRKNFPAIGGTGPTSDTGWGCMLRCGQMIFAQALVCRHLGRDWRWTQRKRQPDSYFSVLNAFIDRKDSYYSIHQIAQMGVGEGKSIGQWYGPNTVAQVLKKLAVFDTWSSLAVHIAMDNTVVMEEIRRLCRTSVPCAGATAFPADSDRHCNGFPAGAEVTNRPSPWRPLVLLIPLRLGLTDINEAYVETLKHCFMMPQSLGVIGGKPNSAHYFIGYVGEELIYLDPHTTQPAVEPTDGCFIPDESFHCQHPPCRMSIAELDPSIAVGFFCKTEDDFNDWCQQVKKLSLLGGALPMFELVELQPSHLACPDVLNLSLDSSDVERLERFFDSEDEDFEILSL
Sequence of Dual specificity protein kinase CLK1 (P49759 whole entry): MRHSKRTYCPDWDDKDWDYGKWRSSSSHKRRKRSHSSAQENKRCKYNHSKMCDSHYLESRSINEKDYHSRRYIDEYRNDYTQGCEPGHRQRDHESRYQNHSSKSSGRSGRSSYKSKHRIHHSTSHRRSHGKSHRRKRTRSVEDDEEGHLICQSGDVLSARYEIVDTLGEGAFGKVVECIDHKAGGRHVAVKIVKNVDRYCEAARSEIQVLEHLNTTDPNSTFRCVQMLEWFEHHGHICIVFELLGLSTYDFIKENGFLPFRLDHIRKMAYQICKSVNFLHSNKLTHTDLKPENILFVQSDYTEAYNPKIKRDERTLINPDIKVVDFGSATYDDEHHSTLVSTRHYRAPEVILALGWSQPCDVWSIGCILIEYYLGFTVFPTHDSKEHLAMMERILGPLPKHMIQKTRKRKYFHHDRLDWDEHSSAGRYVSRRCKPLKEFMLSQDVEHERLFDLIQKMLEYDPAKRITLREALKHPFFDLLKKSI

COc1ccc(-c2n[nH]cc2-c2ccc3c(c2)OCCO3)c(O)c1
AC50 [1]: 8.33 µM (active) | EC50 [2]: 2.8 µM (active) | AC50 [3]: 12 µM (active) | IC50 (Prothrombin): > 50 µM (not active)

COc1ccc(-c2c[n+](CC(=O)OC3CC(C)CCC3C(C)C)c3n2CCC3)cc1 (stereo not given)
EC50 [4]: > 150 µM (inactive) | AC50 [5]: 4.87 µM (active) | AC50 (A-375 [6]): 35 µM (active) | IC50 [7]: < 0.25 µM (active) | AC50 (INS1): 1.78 µM (active) | EC50 [8]: 0.894 µM (active) | IC50 [9]: < 0.25 µM (active)

Cc1cc2sc3ccc(C#CC4(O)CCCCC4)cc3c(=O)c2cc1C
IC50 (Jurkat): < 0.16 µM (active) | AC50 [10]: 25 µM (active) | AC50 [11]: < 0.26 µM (active) | IC50 [12]: > 80 µM (inactive) | AC50 [13]: 42 µM (active) | IC50 [14]: 0.0182 µM (active)

COc1ccc(C(=O)Nc2cc(C(=O)c3ccccc3)c(C)oc2=O)cc1
IC50 (Cysteine protease ATG4B): 11.3 µM (active) | IC50 (Phospholipase A2): 11.7 µM (active)

COc1ccc(Br)cc1/C=C/C(=O)c1ccc(NC(C)=O)cc1
AC50 [15]: 13.6 µM (active) | AC50 [16]: 9.22 µM (active) | EC50 [17]: 1.04 µM (active) | AC50 [18]: 8.41 µM (active) | AC50 [19]: 8.78 µM (active) | AC50 [20]: 17.6 µM (active) | AC50 [5]: 4.64 µM (active) | AC50 [21]: 17.9 µM (active) | AC50 [22]: 7.08 µM (active) | AC50 [23]: 13.7 µM (active) | AC50 (Paired box protein Pax-8): 3.8 µM (active) | AC50 [24]: 15 µM (active) | AC50 [25]: 11.7 µM (active) | EC50 [26]: 1.12 µM (active) | AC50 [27]: 7.73 µM (active) | AC50 (A-375 [28]): 33.2 µM (active)

Source: ChEMBL document CHEMBL1201862, “PubChem BioAssay data set” (2004)
